In patent US20250197375A1, “PYRIMIDINES AND METHODS OF THEIR USE” (Kineta, Inc., priority 2021, published 2025) one finds IC50 data, which are given here for 24 compounds.

Structures are written as SMILES. Some results are limits rather than exact numbers.

Experiment [1] addresses full-length human PIKFYVE (Homo sapiens (Human), UniProt Q9Y2I7, L932S/Q1183K/Q995L/S1033A/S696N/T998S). The experiment can be described thus: PIKfyve Biochemical Assay (ADP-Glo Kinase assay, GST-PIKFYVE). The settings on record: ADP-Glo, 1 hour at room temperature, 10 μM to 3 nM in duplicate; read-out: PIKfyve Biochemistry IC50 (μM)*. As to the method: PIKfyve Biochemical Assay. The biochemical PIKFyve inhibition assays were run by Cama Biosciences according to proprietary methodology based on the Promega ADP-Glo™ Kinase assay. […] GST-PIKFYVE was purified by using glutathione sepharose chromatography and used in an ADP-Glo™ Kinase assay (Promega). Reactions were set up by adding the test compound solution, substrate solution, ATP solution and kinase solution, each at 4× final concentrations. Reactions were prepared with assay buffer (50 mM MOPS, 1 mM DTT, pH7.2), mixed, and incubated in black 384 well polystyrene plates for 1 hour at room temperature. ADP-Glo™ reagent was then added for 40 minutes, followed by kinase detection reagent for an additional 40 minutes. The kinase activity was evaluated by detecting relative light units on a luminescence plate reader. Samples were run in duplicate from 10 μM to 3 nM. […] IC50 values were calculated from concentration versus percent inhibition curves by fitting to a four-parameter logistic curve.
The biochemical PIKFyve inhibition assays were run by Cama Biosciences according to proprietary methodology based on the Promega ADP-Glo™ Kinase assay. […] GST-PIKFYVE was purified by using glutathione sepharose chromatography and used in an ADP-Glo™ Kinase assay (Promega).
Reactions were set up by adding the test compound solution, substrate solution, ATP solution and kinase solution, each at 4× final concentrations. Reactions were prepared with assay buffer (50 mM MOPS, 1 mM DTT, pH7.2), mixed, and incubated in black 384 well polystyrene plates for 1 hour at room temperature. ADP-Glo™ reagent was then added for 40 minutes, followed by kinase detection reagent for an additional 40 minutes. The kinase activity was evaluated by detecting relative light units on a luminescence plate reader. Samples were run in duplicate from 10 uM to 3 nM. […] IC50 values were calculated from concentration vs % inhibition curves by fitting to a four-parameter logistic curve.

The next experiment concerns the target PIKfyve (Homo sapiens (Human), UniProt Q9Y2I7). Description: PIKfyve EEA1 Assay (endosomal vesicle enlargement, high content imaging in U2OS cells). The settings on record: 3 hours of treatment, activity relative to maximal APY0201 activity. Format: cell-based. As to the method:
PIKfyve EEA1 Assay. Genetic or pharmacological disruption of PIKfyve activity results in enlargement of endosomal vesicles. This enlargement was utilized as a surrogate readout of PIKFyve inhibition for routine triage of PIKfyve inhibitors. U2OS cells grown in 96-well assay plates were treated with compound diluted in DMEM media containing 10% fetal bovine serum. After 3 hours of treatment, cells were fixed with paraformaldehyde, permeabilized with 0.2% Triton-X in phosphate buffered saline and stained against EEA1. During the secondary antibody staining, cells were also stained with CellMask™ Deep Red and Hoechst to detect cytoplasms and nuclei respectively. Endosomal structures were visualized using a high content imager at 40× magnification. Images were analyzed using a linear classifier algorithm integrating EEA1 spot size, intensity and texture trained on images of cells treated with the potent reference compound APY0201. Compound activity was calculated by subtracting the DMSO signal and calculating percentage activity relative to maximal APY0201 activity. IC50 values were then calculated from concentration versus percent inhibition data by logistic regression.

Sequence of PIKfyve (Q9Y2I7 whole entry): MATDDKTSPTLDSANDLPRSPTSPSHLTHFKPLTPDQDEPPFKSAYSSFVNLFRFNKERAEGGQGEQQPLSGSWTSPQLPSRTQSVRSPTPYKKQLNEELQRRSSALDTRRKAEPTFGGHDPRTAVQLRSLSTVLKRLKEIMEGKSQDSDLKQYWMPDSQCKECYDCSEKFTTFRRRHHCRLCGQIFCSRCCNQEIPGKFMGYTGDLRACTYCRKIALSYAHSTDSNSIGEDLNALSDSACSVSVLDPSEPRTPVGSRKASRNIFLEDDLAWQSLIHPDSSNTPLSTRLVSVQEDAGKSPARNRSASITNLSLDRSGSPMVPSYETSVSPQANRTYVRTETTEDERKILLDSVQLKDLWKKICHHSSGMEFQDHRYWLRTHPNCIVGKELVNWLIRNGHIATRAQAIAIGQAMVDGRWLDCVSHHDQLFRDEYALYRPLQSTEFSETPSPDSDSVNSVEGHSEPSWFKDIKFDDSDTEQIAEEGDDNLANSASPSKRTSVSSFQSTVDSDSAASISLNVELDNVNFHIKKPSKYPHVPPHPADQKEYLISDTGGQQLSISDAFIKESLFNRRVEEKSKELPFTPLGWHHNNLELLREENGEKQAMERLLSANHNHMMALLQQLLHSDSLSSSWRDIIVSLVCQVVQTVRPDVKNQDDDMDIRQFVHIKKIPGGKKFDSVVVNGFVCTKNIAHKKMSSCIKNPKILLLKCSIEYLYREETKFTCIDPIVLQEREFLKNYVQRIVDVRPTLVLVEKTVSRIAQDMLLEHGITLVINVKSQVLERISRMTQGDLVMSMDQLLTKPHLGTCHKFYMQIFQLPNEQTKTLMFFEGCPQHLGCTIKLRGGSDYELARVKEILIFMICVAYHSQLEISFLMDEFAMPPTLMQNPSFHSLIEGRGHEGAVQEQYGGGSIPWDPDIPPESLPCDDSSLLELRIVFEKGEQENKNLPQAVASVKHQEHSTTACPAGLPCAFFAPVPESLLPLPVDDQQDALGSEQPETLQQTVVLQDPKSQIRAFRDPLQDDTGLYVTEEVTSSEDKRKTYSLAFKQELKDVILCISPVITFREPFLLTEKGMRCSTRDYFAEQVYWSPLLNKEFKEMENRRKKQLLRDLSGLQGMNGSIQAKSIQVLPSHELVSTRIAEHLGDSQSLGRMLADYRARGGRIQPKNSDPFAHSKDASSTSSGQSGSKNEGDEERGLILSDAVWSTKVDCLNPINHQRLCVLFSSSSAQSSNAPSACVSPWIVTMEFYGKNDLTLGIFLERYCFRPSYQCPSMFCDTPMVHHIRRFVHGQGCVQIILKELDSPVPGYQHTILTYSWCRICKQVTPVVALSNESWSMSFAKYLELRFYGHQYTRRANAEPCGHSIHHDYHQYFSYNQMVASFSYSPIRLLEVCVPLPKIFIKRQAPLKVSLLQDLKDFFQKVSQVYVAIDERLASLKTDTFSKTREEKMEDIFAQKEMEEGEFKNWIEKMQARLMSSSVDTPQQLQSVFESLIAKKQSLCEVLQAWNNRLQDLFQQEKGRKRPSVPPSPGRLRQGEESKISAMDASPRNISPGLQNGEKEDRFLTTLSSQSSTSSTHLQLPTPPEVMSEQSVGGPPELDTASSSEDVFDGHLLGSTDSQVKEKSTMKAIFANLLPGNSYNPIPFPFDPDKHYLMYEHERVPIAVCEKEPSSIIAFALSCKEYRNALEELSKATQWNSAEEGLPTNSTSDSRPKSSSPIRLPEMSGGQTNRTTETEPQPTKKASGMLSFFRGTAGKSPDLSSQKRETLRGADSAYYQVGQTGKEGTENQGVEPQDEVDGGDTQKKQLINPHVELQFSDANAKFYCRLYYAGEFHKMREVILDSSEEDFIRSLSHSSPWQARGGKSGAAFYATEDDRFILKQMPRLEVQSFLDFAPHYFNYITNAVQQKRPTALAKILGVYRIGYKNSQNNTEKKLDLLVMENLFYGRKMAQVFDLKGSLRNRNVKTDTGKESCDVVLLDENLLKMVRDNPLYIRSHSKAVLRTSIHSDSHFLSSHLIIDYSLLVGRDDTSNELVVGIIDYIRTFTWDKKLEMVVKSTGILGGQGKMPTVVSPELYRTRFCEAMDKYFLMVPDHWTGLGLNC
Sequence of full-length human PIKFYVE (Q9Y2I7 whole entry S696N/L932S/Q995L/T998S/S1033A/Q1183K): as the sequence (Q9Y2I7 whole entry) above, with S696N, L932S, Q995L, T998S, S1033A, Q1183K counted along it

For the compound `COc1c(Nc2ccncc2)nc(-c2ccncc2)nc1-c1ccnc(-c2ccn(C)n2)c1` [Compound 39, 5-methoxy-6-(2-(1-methyl-1H-pyrazol-3-yl)pyridin-4-yl)-N, 2-di(pyridin-4-yl)pyrimidin-4-amine], the IC50 (commonly the point on the concentration scale where inhibition reaches its midpoint) was less than 0.01 µM in experiment [1] and 0.01 to 0.1 µM on PIKfyve.

For `COc1c(-c2cccc(-c3ccn(C)n3)c2)nc(N2CCOCC2)nc1C(O)c1ccncc1` (stereo not drawn) [Compound 32], the half-maximal inhibitory concentration (IC50) in experiment [1] is 0.1 to 1 µM; against PIKfyve, 1 to 10 µM.

For the compound `COc1c(Nc2ccc(C)cc2)nc(N2CCOCC2)nc1-c1cc(-c2ccn(C)n2)cnn1` [Compound 17, 5-methoxy-6-(5-(1-methyl-1H-pyrazol-3-yl)pyridazin-3-yl)-2-morpholino-N-(p-tolyl)pyrimidin-4-amine], the IC50 was less than 0.01 µM in experiment [1] and 0.01 to 0.1 µM against PIKfyve.

As for `COc1c(Nc2ccncc2)nc(N2CCOCC2)nc1-c1cccc(-c2nn(C)cc2C)c1` [Compound 41], the half-inhibitory concentration (IC50) in experiment [1] lay in the range of 0.01 to 0.1 µM; against PIKfyve it was 0.1 to 1 µM.

Take `COc1c(Nc2cccnc2)nc(N2CCOCC2)nc1-c1cncc(-c2ccn(C)n2)c1` [Compound 19, 5-methoxy-6-(5-(1-methyl-1H-pyrazol-3-yl)pyridin-3-yl)-2-morpholino-N-(pyridin-3-yl)pyrimidin-4-amine]: the IC50 in experiment [1] was 0.01 to 0.1 µM; at PIKfyve it was 0.1 to 1 µM.

For the compound `COc1c(Nc2ccncc2)nc(N2CCOCC2)nc1-c1cccc(-c2cccnn2)c1` [Compound 10, 5-methoxy-2-morpholino-6-(3-(pyridazin-3-yl)phenyl)-N-(pyridin-4-yl)pyrimidin-4-amine], the IC50 was 0.01 to 0.1 µM in experiment [1] and 0.1 to 1 µM on PIKfyve.

Regarding `COc1c(Nc2ccncc2)nc(N2CCOCC2)nc1-c1ccnc(-c2ccn(C)n2)c1` [Compound 14, 5-methoxy-6-(2-(1-methyl-H-pyrazol-3-yl)pyridin-4-yl)-2-morpholino-N-(pyridin-4-yl)pyrimidin-4-amine], the results for the concentration for half-maximal inhibition (IC50) (in experiment [1]; on PIKfyve) were less than 0.01 µM and 0.01 to 0.1 µM, respectively.

With `COc1c(Nc2ccncc2)nc(N2CCC(O)CC2)nc1-c1cccc(-c2ccn(C)n2)c1` [Compound 46, 1-(5-methoxy-4-(3-(1-methyl-1H-pyrazol-3-yl)phenyl)-6-(pyridin-4-ylamino)pyrimidin-2-yl)piperidin-4-ol], the IC50 in experiment [1] was 0.1 to 1 µM; on PIKfyve it was greater than 10 µM.

Take `COc1c(-c2ccncc2)nc(N2CCOCC2)nc1-c1cccc(-c2ccn(C)n2)c1` [Compound 30, 4-(5-methoxy-4-(3-(1-methyl-1H-pyrazol-3-yl)phenyl)-6-(pyridin-4-yl)pyrimidin-2-yl)morpholine]: the IC50 is 0.01 to 0.1 µM in experiment [1] and 1 to 10 µM against PIKfyve.

`COc1cn(C)nc1-c1cccc(-c2nc(N3CCOCC3)nc(Nc3ccncc3)c2OC)c1` [Compound 47, 5-methoxy-6-(3-(4-methoxy-1-methyl-1H-pyrazol-3-yl)phenyl)-2-morpholino-N-(pyridin-4-yl)pyrimidin-4-amine]: the half-inhibitory concentration (IC50) in experiment [1] is 0.01 to 0.1 µM; at PIKfyve, 0.1 to 1 µM.

In the case of `COc1c(Nc2ccncc2)nc(N2CCOCC2)nc1-c1cncc(-c2ccn(C)n2)c1` [Compound 7, 5-methoxy-6-(5-(1-methyl-1H-pyrazol-3-yl)pyridin-3-yl)-2-morpholino-N-(pyridin-4-yl)pyrimidin-4-amine], the half-inhibitory concentration (IC50) in experiment [1] is less than 0.01 µM; on PIKfyve, 0.01 to 0.1 µM.

As to `COc1c(Oc2cccnc2)nc(N2CCOCC2)nc1-n1cc(-c2ccccc2)cn1` [Compound 2, 4-(5-methoxy-4-(4-phenyl-1H-pyrazol-1-yl)-6-(pyridin-3-yloxy)pyrimidin-2-yl) morpholine], the results for the IC50 (in experiment [1]; against PIKfyve) were 0.01 to 0.1 µM and 1 to 10 µM, respectively.

For `Cn1ccc(-c2cnc3c(c2)-c2nc(N4CCOCC4)nc(Nc4ccncc4)c2OC3)n1` [Compound 40, 9-(1-methyl-1H-pyrazol-3-yl)-2-morpholino-N-(pyridin-4-yl)-6H-pyrido[3′,2′:4,5] pyrano[3,2-d]pyrimidin-4-amine], the IC50 (in experiment [1]; against PIKfyve) was 0.01 to 0.1 µM each time.

`Cn1ccc(-c2cc3c(cn2)COc2c(Nc4ccncc4)nc(N4CCOCC4)nc2-3)n1` [Compound 38, 9-(1-methyl-1H-pyrazol-3-yl)-2-morpholino-N-(pyridin-4-yl)-6H-pyrido[4′,3′:4,5]pyrano[3,2-d]pyrimidin-4-amine]: the values for the IC50 (in experiment [1]; on PIKfyve) were 0.01 to 0.1 µM and 0.1 to 1 µM, respectively.

For the compound `Cn1ccc(-c2cccc(-c3nc(N4CCOCC4)nc(Nc4ccncc4)c3-c3ncco3)c2)n1` [Compound 74, 6-[3-(1-methylpyrazol-3-yl)phenyl]-2-morpholino-5-oxazol-2-yl-N-(4-pyridyl)pyrimidin-4-amine], the half-maximal inhibitory concentration (IC50) in experiment [1] was 0.01 to 0.1 µM; at PIKfyve, 0.1 to 1 µM.

Turning to `COc1c(Nc2ccncc2)nc(N2CCCC2=O)nc1-c1cccc(-c2ccn(C)n2)c1` [Compound 44, 1-(5-methoxy-4-(3-(1-methyl-1H-pyrazol-3-yl)phenyl)-6-(pyridin-4-ylamino)pyrimidin-2-yl)pyrrolidin-2-one], the half-maximal inhibitory concentration (IC50) in experiment [1] was 1 to 10 µM; against PIKfyve it was greater than 10 µM.

With `COc1c(Nc2ccncc2)nc(N2CCOCC2)nc1-c1cccc(-n2cccn2)c1` [Compound 8, 6-(3-(1H-pyrazol-1-yl)phenyl)-5-methoxy-2-morpholino-N-(pyridin-4-yl)pyrimidin-4-amine], the figures for the IC50 (in experiment [1]; against PIKfyve) were less than 0.01 µM and 0.1 to 1 µM, respectively.

In the case of `COc1c(Nc2ccncc2)nc(N2CCOCC2)nc1-c1cccc(C(=O)N(C)C)c1` [Compound 11, 3-(5-methoxy-2-morpholino-6-(pyridin-4-ylamino)pyrimidin-4-yl)-N,N-dimethylbenzamide], the 50% inhibitory concentration (IC50) in experiment [1] was in the range of 0.01 to 0.1 µM; against PIKfyve it was 1 to 10 µM.

For `COc1c(C(=O)NC2CC2)nc(N2CCOCC2)nc1-c1cccc(-c2ccn(C)n2)c1` [Compound 6, N-cyclopropyl-4-methoxy-6-(3-(1-methyl-H-pyrazol-3-yl)phenyl)-2-morpholino pyrimidine-4-carboxamide], the IC50 fell in the range of 0.01 to 0.1 µM in experiment [1] and 1 to 10 µM against PIKfyve.

For `CN(C)C(=O)c1c(Nc2ccncc2)nc(N2CCOCC2)nc1-c1cccc(-n2cccn2)c1` [Compound 33], the IC50 in experiment [1] fell in the range of 0.01 to 0.1 µM; against PIKfyve, 0.1 to 1 µM.

In the case of `COc1c(C(=O)Nc2ccccc2)nc(N2CCOCC2)nc1-c1ccn(-c2ccccc2)n1` [Compound 1, 5-methoxy-2-morpholino-N-phenyl-6-(1-phenyl-1H-pyrazol-3-yl)pyrimidine-4-carboxamide], the IC50 in experiment [1] lay within 0.01 to 0.1 µM; on PIKfyve it was 1 to 10 µM.

For the compound `COc1ccc(-c2nc(N3CCOCC3)nc(Nc3ccncc3)c2OC)cc1OC` [Compound 13, 6-(3,4-dimethoxyphenyl)-5-methoxy-2-morpholino-N-(pyridin-4-yl)pyrimidin-4-amine], the IC50 in experiment [1] was less than 0.01 µM; against PIKfyve it was 0.1 to 1 µM.

With `COc1c(Nc2ccncc2)nc(N2CCOCC2)nc1-c1cccc(N2CCN(C)C(=O)C2)c1` [Compound 15, 4-(3-(5-methoxy-2-morpholino-6-(pyridin-4-ylamino)pyrimidin-4-yl)phenyl)-1-methylpiperazin-2-one], the IC50 was 0.01 to 0.1 µM in experiment [1] and 0.1 to 1 µM on PIKfyve.

`COc1c(NCc2cccnc2)nc(-c2ccncc2)nc1-c1cccc(-c2ccn(C)n2)c1` [Compound 62, 5-methoxy-6-(3-(1-methyl-1H-pyrazol-3-yl)phenyl)-N-(pyridin-3-ylmethyl)-2-(pyridin-4-yl)pyrimidin-4-amine]: the results for the half-maximal inhibitory concentration (IC50) (in experiment [1]; against PIKfyve) were less than 0.01 µM and 0.1 to 1 µM, respectively.
